Measurements taken from ChEMBL document CHEMBL1806424, “The novel 3,4-dihydropyrimidin-2(1H)-one urea derivatives of N-aryl urea: synthesis, anti-inflammatory, antibacterial and antifungal activity evaluation” (2011).
≈ marks a conversion by molar mass, not a printed value. Calls of active or inactive are those of the source. No cut-off for these calls is given here.

How the values were obtained:
[1] = system: Bacillus subtilis; experiment: Antibacterial activity against Bacillus subtilis; type: functional
[2] = system: Salmonella typhimurium; experiment: Antibacterial activity against Salmonella Typhimurium; type: functional, Salmonella enterica subsp. enterica serovar Typhimurium; conditions: Salmonella enterica
[3] = system: Aspergillus niger; experiment: Antifungal activity against Aspergillus niger; type: functional
[4] = system: THP-1; experiment: Antiinflammatory activity in human THP1 cells assessed as inhibition of LPS-induced IL6 production at 10 uM treated 30 mins before LPS challenge measured after 24 hrs by ELISA; type: functional
[5] = system: THP-1; experiment: Antiinflammatory activity in human THP1 cells assessed as inhibition of LPS-induced TNFalpha production at 10 uM treated 30 mins before LPS challenge measured after 24 hrs by ELISA; type: functional
[6] = system: Candida albicans; experiment: Antifungal activity against Candida albicans; type: functional
[7] = system: Staphylococcus aureus; experiment: Antibacterial activity against Staphylococcus aureus; type: functional
[8] = system: Escherichia coli; experiment: Antibacterial activity against Escherichia coli; type: functional
[9] = system: Aspergillus flavus; experiment: Antifungal activity against Aspergillus flavus; type: functional
[10] = system: Fusarium solani; experiment: Antifungal activity against Fusarium solani; type: functional
[11] = system: Aspergillus flavus; experiment: Antifungal activity against Aspergillus flavus at 200 ug/ml; type: functional, organism-based
[12] = system: Salmonella typhimurium; experiment: Antibacterial activity against Salmonella Typhimurium at 200 ug/ml; type: functional, organism-based; conditions: Salmonella enterica subsp. enterica serovar Typhimurium
[13] = system: Aspergillus niger; experiment: Antifungal activity against Aspergillus niger at 200 ug/ml; type: functional, organism-based
[14] = system: Bacillus subtilis; experiment: Antibacterial activity against Bacillus subtilis at 200 ug/ml; type: functional, organism-based
[15] = system: Escherichia coli; experiment: Antibacterial activity against Escherichia coli at 200 ug/ml; type: functional, organism-based
[16] = system: Fusarium solani; experiment: Antifungal activity against Fusarium solani at 200 ug/ml; type: functional, organism-based
[17] = system: THP-1; experiment: Antiinflammatory activity in human THP1 cells assessed as inhibition of LPS-induced TNFalpha production at 1 uM treated 30 mins before LPS challenge measured after 24 hrs by ELISA; type: functional
[18] = system: THP-1; experiment: Antiinflammatory activity in human THP1 cells assessed as inhibition of LPS-induced IL6 production at 1 uM treated 30 mins before LPS challenge measured after 24 hrs by ELISA; type: functional
[19] = system: Aspergillus flavus; experiment: Ratio of miconazole MIC to compound MIC for Aspergillus flavus; type: functional
[20] = system: Candida albicans; experiment: Ratio of miconazole MIC to compound MIC for Candida albicans; type: functional
[21] = system: Aspergillus niger; experiment: Ratio of miconazole MIC to compound MIC for Aspergillus niger; type: functional
[22] = system: Staphylococcus aureus; experiment: Ratio of ciprofloxacin MIC to compound MIC for Staphylococcus aureus; type: functional
[23] = system: Salmonella typhimurium; experiment: Ratio of ciprofloxacin MIC to compound MIC for Salmonella Typhimurium; type: functional, Salmonella enterica subsp. enterica serovar Typhimurium
[24] = system: Escherichia coli; experiment: Ratio of ciprofloxacin MIC to compound MIC for Escherichia coli; type: functional
[25] = system: Fusarium solani; experiment: Ratio of miconazole MIC to compound MIC for Fusarium solani; type: functional
[26] = system: Bacillus subtilis; experiment: Ratio of ciprofloxacin MIC to compound MIC for Bacillus subtilis; type: functional
[27] = system: Staphylococcus aureus; experiment: Antibacterial activity against Staphylococcus aureus at 200 ug/ml; type: functional, organism-based
[28] = system: Candida albicans; experiment: Antifungal activity against Candida albicans at 200 ug/ml; type: functional, organism-based

SMILES	MIC [1] [µg/mL]	MIC [2] [µg/mL]	MIC [3] [µg/mL]	inhibition at 10 µM [4] [%]	inhibition at 10 µM [5] [%]	MIC [6] [µg/mL]	MIC [7] [µg/mL]	MIC [8] [µg/mL]	MIC [9] [µg/mL]	MIC [10] [µg/mL]	other results
CCOC(=O)C1=C(C)NC(=S)NC1c1ccc(NC(=O)Nc2ccccc2OC(F)(F)F)cc1 (stereo not given)	30 (≈ 60.7 µM)	20 (≈ 40.4 µM)	20 (≈ 40.4 µM)	60	20	15 (≈ 30.3 µM)	30 (≈ 60.7 µM)	25 (≈ 50.6 µM)	15 (≈ 30.3 µM)	15 (≈ 30.3 µM)	
CCOC(=O)C1=C(C)NC(=S)NC1c1ccc(NC(=O)Nc2ccc(F)c(Cl)c2)cc1 (stereo not given)				40	3	80 (≈ 173 µM)	60 (≈ 130 µM)	85 (≈ 184 µM)		95 (≈ 205 µM)	Activity [11]: inactive; Activity [12]: inactive; Activity [13]: inactive; Activity [14]: inactive
Clc1ccc(COC(Cn2ccnc2)c2ccc(Cl)cc2Cl)c(Cl)c1 (stereo not given) [MICONAZOLE]			20 (≈ 48.1 µM)			25 (≈ 60.1 µM)			20 (≈ 48.1 µM)	15 (≈ 36 µM)	
O=C(O)c1cn(C2CC2)c2cc(N3CCNCC3)c(F)cc2c1=O [CIPROFLOXACIN]	25 (≈ 75.4 µM)	25 (≈ 75.4 µM)						15 (≈ 45.3 µM)			
CCOC(=O)C1=C(C)NC(=S)NC1c1ccc([N+](=O)[O-])cc1 (stereo not given)	45 (≈ 140 µM)	50 (≈ 156 µM)	50 (≈ 156 µM)	8	0	30 (≈ 93.4 µM)	35 (≈ 109 µM)	30 (≈ 93.4 µM)	60 (≈ 187 µM)	60 (≈ 187 µM)	
CCOC(=O)C1=C(C)NC(=S)NC1c1ccc(NC(=O)Nc2ccc(C(F)(F)F)cc2Cl)cc1 (stereo not given)	35 (≈ 68.2 µM)	55 (≈ 107 µM)	40 (≈ 78 µM)	73	16	35 (≈ 68.2 µM)	35 (≈ 68.2 µM)	25 (≈ 48.7 µM)	35 (≈ 68.2 µM)	60 (≈ 117 µM)	
CCOC(=O)C1=C(C)NC(=S)NC1c1ccc(N)cc1 (stereo not given)	55 (≈ 189 µM)	60 (≈ 206 µM)	40 (≈ 137 µM)	3	0	55 (≈ 189 µM)	40 (≈ 137 µM)	40 (≈ 137 µM)	60 (≈ 206 µM)	45 (≈ 154 µM)	
CCOC(=O)C1=C(C)NC(=S)NC1c1ccc(NC(=O)Nc2c(C)cccc2F)cc1 (stereo not given)	65 (≈ 147 µM)	30 (≈ 67.8 µM)	35 (≈ 79.1 µM)	6	0	50 (≈ 113 µM)	60 (≈ 136 µM)	30 (≈ 67.8 µM)	40 (≈ 90.4 µM)	40 (≈ 90.4 µM)	
CCOC(=O)C1=C(C)NC(=S)NC1c1ccc(NC(=O)Nc2c(F)cccc2C(F)(F)F)cc1 (stereo not given)	40 (≈ 80.6 µM)	60 (≈ 121 µM)	30 (≈ 60.4 µM)	27	0	55 (≈ 111 µM)	55 (≈ 111 µM)	40 (≈ 80.6 µM)	60 (≈ 121 µM)	60 (≈ 121 µM)	
CCOC(=O)C1=C(C)NC(=S)NC1c1ccc(NC(=O)Nc2cccc(C(F)(F)F)c2)cc1 (stereo not given)	55 (≈ 115 µM)	40 (≈ 83.6 µM)	20 (≈ 41.8 µM)	11	0	25 (≈ 52.2 µM)	40 (≈ 83.6 µM)	20 (≈ 41.8 µM)	15 (≈ 31.3 µM)	15 (≈ 31.3 µM)	
CCOC(=O)C1=C(C)NC(=S)NC1c1ccc(NC(=O)Nc2ccc(OC)cc2)cc1 (stereo not given)	20 (≈ 45.4 µM)	45 (≈ 102 µM)	25 (≈ 56.8 µM)	42	0	10 (≈ 22.7 µM)	15 (≈ 34.1 µM)	15 (≈ 34.1 µM)	30 (≈ 68.1 µM)	30 (≈ 68.1 µM)	
CCOC(=O)C1=C(C)NC(=S)NC1c1ccc(NC(=O)Nc2cc(F)cc(F)c2)cc1 (stereo not given)				86	62	95 (≈ 213 µM)	90 (≈ 202 µM)				Activity [11]: inactive; Activity [15]: inactive; Activity [12]: inactive; Activity [13]: inactive; Activity [14]: inactive; Activity [16]: inactive
CCOC(=O)C1=C(C)NC(=S)NC1c1ccc(NC(=O)Nc2ccc(C(C)C)cc2)cc1 (stereo not given)	85 (≈ 188 µM)	95 (≈ 210 µM)	90 (≈ 199 µM)	65	30	90 (≈ 199 µM)	85 (≈ 188 µM)	55 (≈ 122 µM)	95 (≈ 210 µM)	80 (≈ 177 µM)	
CCOC(=O)C1=C(C)NC(=S)NC1c1ccc(NC(=O)Nc2c(C)cccc2Cl)cc1 (stereo not given)	65 (≈ 142 µM)	80 (≈ 174 µM)	55 (≈ 120 µM)	11	2	40 (≈ 87.2 µM)	40 (≈ 87.2 µM)	55 (≈ 120 µM)	40 (≈ 87.2 µM)	40 (≈ 87.2 µM)	
C[C@@H]1C[C@H]2[C@@H]3CCC4=CC(=O)C=C[C@]4(C)[C@@]3(F)[C@@H](O)C[C@]2(C)[C@@]1(O)C(=O)CO [DEXAMETHASONE]											inhibition at 1 µM [17]: 71%; inhibition at 1 µM [18]: 84%
CCOC(=O)C1=C(C)NC(=S)NC1c1ccc(NC(=O)Nc2c(F)cccc2Cl)cc1 (stereo not given)	55 (≈ 119 µM)	85 (≈ 184 µM)	60 (≈ 130 µM)	36	0	40 (≈ 86.4 µM)	65 (≈ 140 µM)	85 (≈ 184 µM)	90 (≈ 194 µM)	80 (≈ 173 µM)	
CCOC(=O)C1=C(C)NC(=S)NC1c1ccc(NC(=O)Nc2ccc(F)c(C)c2)cc1 (stereo not given)	90 (≈ 203 µM)	90 (≈ 203 µM)	95 (≈ 215 µM)	16	0	80 (≈ 181 µM)	65 (≈ 147 µM)		95 (≈ 215 µM)		Activity [15]: inactive; Activity [16]: inactive
CCOC(=O)C1=C(C)NC(=S)NC1c1ccc(NC(=O)Nc2ccc(C)c(C)c2)cc1 (stereo not given)	95 (≈ 217 µM)			2	0	95 (≈ 217 µM)	90 (≈ 205 µM)				Activity [11]: inactive; Activity [15]: inactive; Activity [12]: inactive; Activity [13]: inactive; Activity [16]: inactive
CCOC(=O)C1=C(C)NC(=S)NC1c1ccc(NC(=O)Nc2c(Cl)cccc2C(F)(F)F)cc1 (stereo not given)	85 (≈ 166 µM)	90 (≈ 175 µM)	65 (≈ 127 µM)	39	0	60 (≈ 117 µM)	40 (≈ 78 µM)	60 (≈ 117 µM)	55 (≈ 107 µM)	80 (≈ 156 µM)	
CCOC(=O)C1=C(C)NC(=S)NC1c1ccc(NC(=O)Nc2ccccc2F)cc1 (stereo not given)	15 (≈ 35 µM)	40 (≈ 93.4 µM)	10 (≈ 23.3 µM)	40	0	10 (≈ 23.3 µM)	10 (≈ 23.3 µM)	10 (≈ 23.3 µM)	10 (≈ 23.3 µM)	15 (≈ 35 µM)	Ratio [19]: 2.5; Ratio [20]: 2.5; Ratio [21]: 2.5; Ratio [22]: 1.5; Ratio [23]: 1.5; Ratio [24]: 1.5; Ratio [25]: 2.5; Ratio [26]: 1.5
CCOC(=O)C1=C(C)NC(=S)NC1c1ccc(NC(=O)Nc2ccccc2Cl)cc1 (stereo not given)	20 (≈ 44.9 µM)	40 (≈ 89.9 µM)	15 (≈ 33.7 µM)	43	0	10 (≈ 22.5 µM)	10 (≈ 22.5 µM)	10 (≈ 22.5 µM)	30 (≈ 67.4 µM)	15 (≈ 33.7 µM)	Ratio [19]: 2.5; Ratio [20]: 2.5; Ratio [21]: 2.5; Ratio [22]: 1.5; Ratio [23]: 1.5; Ratio [24]: 1.5; Ratio [25]: 2.5; Ratio [26]: 1.5
CCCCc1ccc(NC(=O)Nc2ccc(C3NC(=S)NC(C)=C3C(=O)OCC)cc2)cc1 (stereo not given)				10	0			95 (≈ 204 µM)			Activity [11]: inactive; Activity [27]: inactive; Activity [12]: inactive; Activity [28]: inactive; Activity [13]: inactive; Activity [14]: inactive; Activity [16]: inactive
CCOC(=O)C1=C(C)NC(=S)NC1c1ccc(NC(=O)Nc2ccccc2C(F)(F)F)cc1 (stereo not given)	25 (≈ 52.2 µM)	30 (≈ 62.7 µM)	40 (≈ 83.6 µM)	27	10	25 (≈ 52.2 µM)	25 (≈ 52.2 µM)	15 (≈ 31.3 µM)	30 (≈ 62.7 µM)	30 (≈ 62.7 µM)	
CCOC(=O)C1=C(C)NC(=S)NC1c1ccc(NC(=O)Nc2cc(C(F)(F)F)ccc2Cl)cc1 (stereo not given)	85 (≈ 166 µM)	90 (≈ 175 µM)	80 (≈ 156 µM)	92	68	60 (≈ 117 µM)	55 (≈ 107 µM)	80 (≈ 156 µM)	90 (≈ 175 µM)	85 (≈ 166 µM)	
CCOC(=O)C1=C(C)NC(=S)NC1c1ccc(NC(=O)Nc2ccc(C(F)(F)F)cc2)cc1 (stereo not given)	25 (≈ 52.2 µM)	30 (≈ 62.7 µM)	15 (≈ 31.3 µM)	55	3	15 (≈ 31.3 µM)	20 (≈ 41.8 µM)	10 (≈ 20.9 µM)	25 (≈ 52.2 µM)	10 (≈ 20.9 µM)	
CCOC(=O)C1=C(C)NC(=S)NC1c1ccc(NC(=O)Nc2ccccc2Oc2ccccc2)cc1 (stereo not given)	55 (≈ 109 µM)	40 (≈ 79.6 µM)	60 (≈ 119 µM)	36	0	40 (≈ 79.6 µM)	40 (≈ 79.6 µM)	35 (≈ 69.6 µM)	30 (≈ 59.7 µM)	30 (≈ 59.7 µM)	
